Assay results from the NIST ThermoML archive (doi:10.1016/j.tca.2005.08.034).
± gives the expanded uncertainty stated by the source.

What was measured:
[1] = 298.15 K; for surface tension liquid-gas: Drop volume; for speed of sound / mass density: 101.33 kPa, Liquid; for mass density: Vibrating tube method
[2] = refractive index (Na D-line) (dimensionless); conditions: 298.15 K; 101.33 kPa; Liquid; refractometer
[3] = xn = mol fraction of the nth substance listed; conditions: 298.15 K; for surface tension liquid-gas: Drop volume; for mass density / speed of sound: 101.3 kPa, Liquid; for mass density: Vibrating tube method
[4] = refractive index (Na D-line) (dimensionless); φn = volume fraction of the nth substance listed; conditions: 298.15 K, 101.3 kPa, Liquid, refractometer
[5] = excess molar enthalpy (molar enthalpy of mixing); xn = mol fraction of the nth substance listed; conditions: 298.15 K, 101.3 kPa, Liquid, Flow calorimetry

c1ccccc1 [benzene]
Conditions	mass density [kg/m3]	refractive index	speed of sound [m/s]	surface tension liquid-gas [mN/m]
[1]	873.39 ± 0.12	–	1299.2 ± 2.1	28.57 ± 0.32
[2]	–	1.49774 ± 9e-05	–	–

CC1CCCO1 (stereo unspecified) [2-methyltetrahydrofuran]
Conditions	mass density [kg/m3]	refractive index	speed of sound [m/s]	surface tension liquid-gas [mN/m]
[1]	849.2 ± 0.45	–	1202.8 ± 2.3	24.68 ± 0.31
[2]	–	1.40287 ± 0.00022	–	–

Clc1ccccc1 [chlorobenzene]
Conditions	mass density [kg/m3]	refractive index	speed of sound [m/s]	surface tension liquid-gas [mN/m]
[1]	1100.94 ± 0.3	–	1267.9 ± 2.1	33 ± 0.37
[2]	–	1.52176 ± 0.00013	–	–

Fc1ccccc1 [fluorobenzene] + CC1CCCO1
Conditions	excess molar enthalpy [kcal/mol]	mass density [kg/m3]	refractive index	speed of sound [m/s]	surface tension liquid-gas [mN/m]
[3], x2 = 0.0364	–	–	–	–	27.39 ± 0.34
[3], x2 = 0.0456	–	1011.05 ± 0.52	–	1168.5 ± 2.3	–
[3], x2 = 0.099	–	1001.97 ± 0.51	–	1171.6 ± 2.3	–
[3], x2 = 0.108	–	–	–	–	27.27 ± 0.33
[3], x2 = 0.1923	–	986.13 ± 0.5	–	1176.9 ± 2.3	–
[3], x2 = 0.1998	–	–	–	–	27.07 ± 0.33
[3], x2 = 0.2882	–	969.82 ± 0.5	–	1182.1 ± 2.3	–
[3], x2 = 0.2952	–	–	–	–	26.83 ± 0.33
[3], x2 = 0.3925	–	952.32 ± 0.49	–	1187.1 ± 2.3	–
[3], x2 = 0.3998	–	–	–	–	26.52 ± 0.33
[3], x2 = 0.4884	–	936.02 ± 0.49	–	1191.1 ± 2.3	–
[3], x2 = 0.4958	–	–	–	–	26.21 ± 0.32
[3], x2 = 0.5925	–	918.32 ± 0.48	–	1194.8 ± 2.3	–
[3], x2 = 0.6048	–	–	–	–	25.86 ± 0.32
[3], x2 = 0.6784	–	–	–	–	25.62 ± 0.32
[3], x2 = 0.6907	–	901.51 ± 0.47	–	1197.6 ± 2.3	–
[3], x2 = 0.7796	–	–	–	–	25.3 ± 0.31
[3], x2 = 0.7942	–	883.72 ± 0.46	–	1199.4 ± 2.3	–
[3], x2 = 0.8938	–	866.65 ± 0.45	–	1201 ± 2.3	–
[3], x2 = 0.9097	–	–	–	–	24.92 ± 0.31
[3], x2 = 0.9481	–	857.59 ± 0.45	–	1201.9 ± 2.3	–
[3], x2 = 0.9707	–	–	–	–	24.76 ± 0.31
[4], φ2 = 0.039	–	–	1.4608 ± 0.00022	–	–
[4], φ2 = 0.1151	–	–	1.45666 ± 0.00022	–	–
[4], φ2 = 0.2069	–	–	1.4516 ± 0.00022	–	–
[4], φ2 = 0.3103	–	–	1.44577 ± 0.00022	–	–
[4], φ2 = 0.4171	–	–	1.4396 ± 0.00022	–	–
[4], φ2 = 0.5137	–	–	1.43392 ± 0.00022	–	–
[4], φ2 = 0.6218	–	–	1.42736 ± 0.00022	–	–
[4], φ2 = 0.6938	–	–	1.42282 ± 0.00022	–	–
[4], φ2 = 0.7916	–	–	1.41661 ± 0.00022	–	–
[4], φ2 = 0.9154	–	–	1.40849 ± 0.00022	–	–
[4], φ2 = 0.9727	–	–	1.40473 ± 0.00022	–	–
[5], x2 = 0.056	-0.0191 ± 0.000956	–	–	–	–
[5], x2 = 0.101	-0.0373 ± 0.0012	–	–	–	–
[5], x2 = 0.195	-0.0746 ± 0.00191	–	–	–	–
[5], x2 = 0.288	-0.103 ± 0.00239	–	–	–	–
[5], x2 = 0.388	-0.125 ± 0.00263	–	–	–	–
[5], x2 = 0.474	-0.138 ± 0.00311	–	–	–	–
[5], x2 = 0.583	-0.136 ± 0.00287	–	–	–	–
[5], x2 = 0.685	-0.124 ± 0.00263	–	–	–	–
[5], x2 = 0.786	-0.0966 ± 0.00215	–	–	–	–
[5], x2 = 0.889	-0.0574 ± 0.00143	–	–	–	–
[5], x2 = 0.94	-0.0323 ± 0.0012	–	–	–	–

CC1CCCO1 (stereo unspecified) [2-methyltetrahydrofuran] + c1ccccc1
Conditions	excess molar enthalpy [kcal/mol]	mass density [kg/m3]	refractive index	speed of sound [m/s]	surface tension liquid-gas [mN/m]
[3], x1 = 0.0456	–	872.27 ± 0.13	–	1295.7 ± 2.1	–
[3], x1 = 0.0536	–	–	–	–	28.33 ± 0.32
[3], x1 = 0.0971	–	–	–	–	28.15 ± 0.32
[3], x1 = 0.0981	–	871 ± 0.14	–	1290.9 ± 2.1	–
[3], x1 = 0.1962	–	–	–	–	27.74 ± 0.31
[3], x1 = 0.1987	–	868.57 ± 0.17	–	1281.6 ± 2.1	–
[3], x1 = 0.2996	–	866.21 ± 0.2	–	1271.8 ± 2.1	–
[3], x1 = 0.3039	–	–	–	–	27.3 ± 0.31
[3], x1 = 0.395	–	863.99 ± 0.23	–	1263 ± 2.1	–
[3], x1 = 0.396	–	–	–	–	26.92 ± 0.31
[3], x1 = 0.4976	–	–	–	–	26.51 ± 0.31
[3], x1 = 0.4979	–	861.47 ± 0.27	–	1253.1 ± 2.1	–
[3], x1 = 0.5949	–	859.05 ± 0.3	–	1243.6 ± 2.2	–
[3], x1 = 0.5976	–	–	–	–	26.12 ± 0.31
[3], x1 = 0.6798	–	856.87 ± 0.33	–	1235.1 ± 2.2	–
[3], x1 = 0.704	–	–	–	–	25.71 ± 0.31
[3], x1 = 0.7992	–	853.68 ± 0.37	–	1222.7 ± 2.2	–
[3], x1 = 0.8033	–	–	–	–	25.36 ± 0.31
[3], x1 = 0.896	–	851.23 ± 0.41	–	1212.7 ± 2.3	–
[3], x1 = 0.9034	–	–	–	–	25.01 ± 0.31
[3], x1 = 0.9486	–	850.1 ± 0.43	–	1207.5 ± 2.3	–
[3], x1 = 0.9535	–	–	–	–	24.84 ± 0.31
[4], φ1 = 0.0603	–	–	1.49204 ± 9.3e-05	–	–
[4], φ1 = 0.1086	–	–	1.48747 ± 9.7e-05	–	–
[4], φ1 = 0.2167	–	–	1.47724 ± 0.00011	–	–
[4], φ1 = 0.331	–	–	1.46642 ± 0.00012	–	–
[4], φ1 = 0.4263	–	–	1.4574 ± 0.00014	–	–
[4], φ1 = 0.5289	–	–	1.44769 ± 0.00015	–	–
[4], φ1 = 0.6273	–	–	1.43835 ± 0.00016	–	–
[4], φ1 = 0.7294	–	–	1.42866 ± 0.00018	–	–
[4], φ1 = 0.8223	–	–	1.41981 ± 0.00019	–	–
[4], φ1 = 0.9137	–	–	1.41109 ± 0.0002	–	–
[4], φ1 = 0.9587	–	–	1.40681 ± 0.00021	–	–
[5], x1 = 0.054	-0.00526 ± 0.000478	–	–	–	–
[5], x1 = 0.097	-0.011 ± 0.000478	–	–	–	–
[5], x1 = 0.188	-0.0232 ± 0.000717	–	–	–	–
[5], x1 = 0.279	-0.033 ± 0.000717	–	–	–	–
[5], x1 = 0.377	-0.0409 ± 0.000956	–	–	–	–
[5], x1 = 0.494	-0.0449 ± 0.000956	–	–	–	–
[5], x1 = 0.575	-0.0464 ± 0.000956	–	–	–	–
[5], x1 = 0.679	-0.0423 ± 0.000956	–	–	–	–
[5], x1 = 0.783	-0.0332 ± 0.000717	–	–	–	–
[5], x1 = 0.89	-0.0196 ± 0.000478	–	–	–	–
[5], x1 = 0.944	-0.0108 ± 0.000478	–	–	–	–

Fc1ccccc1 [fluorobenzene]
Conditions	mass density [kg/m3]	refractive index	speed of sound [m/s]	surface tension liquid-gas [mN/m]
[1]	1018.79 ± 0.52	–	1166 ± 2.3	27.43 ± 0.34
[2]	–	1.4629 ± 0.00022	–	–

CC1CCCO1 (stereo unspecified) [2-methyltetrahydrofuran] + Clc1ccccc1
Conditions	excess molar enthalpy [kcal/mol]	mass density [kg/m3]	refractive index	speed of sound [m/s]	surface tension liquid-gas [mN/m]
[3], x1 = 0.0378	–	1092.14 ± 0.3	–	1266.6 ± 2.1	–
[3], x1 = 0.0483	–	–	–	–	32.6 ± 0.37
[3], x1 = 0.0969	–	–	–	–	32.19 ± 0.37
[3], x1 = 0.0995	–	1077.75 ± 0.31	–	1264.3 ± 2.1	–
[3], x1 = 0.1875	–	1056.86 ± 0.33	–	1261.1 ± 2.1	–
[3], x1 = 0.1993	–	–	–	–	31.31 ± 0.36
[3], x1 = 0.2987	–	1030.2 ± 0.35	–	1256.5 ± 2.2	–
[3], x1 = 0.2999	–	–	–	–	30.45 ± 0.35
[3], x1 = 0.3922	–	1007.36 ± 0.37	–	1251.9 ± 2.2	–
[3], x1 = 0.3988	–	–	–	–	29.61 ± 0.35
[3], x1 = 0.4947	–	981.73 ± 0.4	–	1246.3 ± 2.2	–
[3], x1 = 0.503	–	–	–	–	28.74 ± 0.34
[3], x1 = 0.5973	–	955.71 ± 0.41	–	1239.9 ± 2.2	–
[3], x1 = 0.6008	–	–	–	–	27.92 ± 0.33
[3], x1 = 0.6435	–	943.88 ± 0.41	–	1236.6 ± 2.2	–
[3], x1 = 0.7024	–	–	–	–	27.09 ± 0.33
[3], x1 = 0.8003	–	902.98 ± 0.43	–	1223.5 ± 2.3	–
[3], x1 = 0.8028	–	–	–	–	26.27 ± 0.32
[3], x1 = 0.9051	–	–	–	–	25.44 ± 0.31
[3], x1 = 0.9074	–	874.39 ± 0.44	–	1212.9 ± 2.3	–
[3], x1 = 0.9393	–	865.76 ± 0.44	–	1209.6 ± 2.3	–
[3], x1 = 0.9496	–	–	–	–	25.08 ± 0.31
[4], φ1 = 0.0479	–	–	1.5165 ± 0.00014	–	–
[4], φ1 = 0.0961	–	–	1.5112 ± 0.00014	–	–
[4], φ1 = 0.1979	–	–	1.49985 ± 0.00015	–	–
[4], φ1 = 0.2981	–	–	1.48853 ± 0.00016	–	–
[4], φ1 = 0.3966	–	–	1.47724 ± 0.00017	–	–
[4], φ1 = 0.5008	–	–	1.46501 ± 0.00018	–	–
[4], φ1 = 0.5987	–	–	1.45323 ± 0.00019	–	–
[4], φ1 = 0.7006	–	–	1.44079 ± 0.00019	–	–
[4], φ1 = 0.8014	–	–	1.4283 ± 0.0002	–	–
[4], φ1 = 0.9043	–	–	1.41518 ± 0.00021	–	–
[4], φ1 = 0.9492	–	–	1.40941 ± 0.00021	–	–
[5], x1 = 0.058	-0.0203 ± 0.000956	–	–	–	–
[5], x1 = 0.105	-0.0402 ± 0.0012	–	–	–	–
[5], x1 = 0.198	-0.0793 ± 0.00191	–	–	–	–
[5], x1 = 0.294	-0.114 ± 0.00263	–	–	–	–
[5], x1 = 0.391	-0.137 ± 0.00287	–	–	–	–
[5], x1 = 0.488	-0.15 ± 0.00335	–	–	–	–
[5], x1 = 0.585	-0.149 ± 0.00311	–	–	–	–
[5], x1 = 0.683	-0.137 ± 0.00311	–	–	–	–
[5], x1 = 0.784	-0.107 ± 0.00239	–	–	–	–
[5], x1 = 0.883	-0.0626 ± 0.00167	–	–	–	–
[5], x1 = 0.932	-0.0394 ± 0.00143	–	–	–	–
